Reference: article PMC7884382, “A Phase 1 study of RO6870810, a novel bromodomain and extra-terminal protein inhibitor, in patients with NUT carcinoma, other solid tumours, or diffuse large B-cell lymphoma” (British Journal of Cancer, 2020)
Where two headings read alike, the source gives them in different places.

Method: Patients were considered evaluable for safety if they received ≥1 injection of the study drug. All adverse events (AEs) were graded per the National Cancer Institute’s Common Terminology Criteria for Adverse Events (CTCAE) version 4.03.
Grade ≤3 drug-related fever or skin or SC tissue disorders localised to the site of injection—including grade ≤3 rash, pruritus, skin induration or pain—were not considered DLTs.
Data for patients with NC and lymphoma were evaluated but not included in the MTD determination.

## Cc1sc2c(c1C)C(c1ccc(Cl)cc1)=N[C@@H](CC(=O)NCCCN1CCN(C)CC1)c1nnc(C)n1-2 [RO6870810]
DLBCL (n = 19)
  Death due to AE: 3 (15.8) n (%)
  Death due to treatment-related AE: 0 n (%)
NC (n = 8)
  Death due to AE: 3 (37.5) n (%)
  Death due to treatment-related AE: 0 n (%)
Solid tumours (n = 47)
  Death due to AE: 2 (4.3) n (%)
  Death due to treatment-related AE: 0 n (%)
All patients
  Treatment-related grade 5 AEs: No treatment-related grade 5 AEs occurred
human, in vivo
  Grade 3/4 treatment-related AE: anaemia: 8%
  Grade 3/4 treatment-related AE: fatigue: 10%
  Grade 3/4 treatment-related AE: hyperbilirubinemia: 5%
  Grade 3/4 treatment-related AE: thrombocytopenia: 10%
  Incidence of treatment-related thrombocytopenia: 12%
  Treatment-emergent AE: Abdominal pain: 13 (17.6) n (%)
  Treatment-emergent AE: Anemia: 20 (27.0) n (%)
  Treatment-emergent AE: Back pain: 13 (17.6) n (%)
  Treatment-emergent AE: Blood bilirubin increased: 14 (18.9) n (%)
  Treatment-emergent AE: Constipation: 14 (18.9) n (%)
  Treatment-emergent AE: Cough: 10 (13.5) n (%)
  Treatment-emergent AE: Decreased appetite: 38 (51.4) n (%)
  Treatment-emergent AE: Dehydration: 13 (17.6) n (%)
  Treatment-emergent AE: Diarrhea: 26 (35.1) n (%)
  Treatment-emergent AE: Dizziness: 10 (13.5) n (%)
  Treatment-emergent AE: Dry mouth: 11 (14.9) n (%)
  Treatment-emergent AE: Dysgeusia: 20 (27.0) n (%)
  Treatment-emergent AE: Dyspnea: 12 (16.2) n (%)
  Treatment-emergent AE: Fatigue: 43 (58.1) n (%)
  Treatment-emergent AE: Headache: 12 (16.2) n (%)
  Treatment-emergent AE: Hypomagnesaemia: 10 (13.5) n (%)
  Treatment-emergent AE: Injection site erythema: 26 (35.1) n (%)
  Treatment-emergent AE: Injection site induration: 21 (28.4) n (%)
  Treatment-emergent AE: Injection site pain: 25 (33.8) n (%)
  Treatment-emergent AE: Injection site pruritus: 15 (20.3) n (%)
  Treatment-emergent AE: Injection site reaction: 10 (13.5) n (%)
  Treatment-emergent AE: Injection site swelling: 10 (13.5) n (%)
  Treatment-emergent AE: Malaise: 16 (21.6) n (%)
  Treatment-emergent AE: Myalgia: 12 (16.2) n (%)
  Treatment-emergent AE: Nausea: 32 (43.2) n (%)
  Treatment-emergent AE: Thrombocytopenia: 10 (13.5) n (%)
  Treatment-emergent AE: Vomiting: 28 (37.8) n (%)
  Treatment-emergent AE: Weight decreased: 9 (12.2) n (%)
  Treatment-related AE of any grade: decreased appetite: 35%
  Treatment-related AE of any grade: fatigue: 42%
  Treatment-related AE of any grade: injection-site erythema: 35%
  Treatment-related AE of any grade: injection-site pain: 32%
  Treatment-related AE of any grade: nausea: 31%
  Treatment-related AE: Cardiomyopathy: 1 (1.4) n (%)
  Treatment-related AE: Cholestasis: 1 (1.4) n (%)
  Treatment-related AE: Dyspnoea: 1 (1.4) n (%)
  Treatment-related AE: Hepatic enzyme increased: 1 (1.4) n (%)
  Treatment-related AE: Neutropenia: 1 (1.4) n (%)
  Treatment-related AE: Peritoneal haemorrhage: 1 (1.4) n (%)
human, in vivo, 0.03 mg/kg
  Treatment-emergent AE: Abdominal pain: 1 (33.3) n (%)
  Treatment-emergent AE: Anemia: 0 n (%)
  Treatment-emergent AE: Back pain: 0 n (%)
  Treatment-emergent AE: Blood bilirubin increased: 0 n (%)
  Treatment-emergent AE: Constipation: 0 n (%)
  Treatment-emergent AE: Cough: 0 n (%)
  Treatment-emergent AE: Decreased appetite: 0 n (%)
  Treatment-emergent AE: Dehydration: 0 n (%)
  Treatment-emergent AE: Diarrhea: 1 (33.3) n (%)
  Treatment-emergent AE: Dizziness: 0 n (%)
  Treatment-emergent AE: Dry mouth: 0 n (%)
  Treatment-emergent AE: Dysgeusia: 0 n (%)
  Treatment-emergent AE: Dyspnea: 0 n (%)
  Treatment-emergent AE: Fatigue: 0 n (%)
  Treatment-emergent AE: Headache: 0 n (%)
  Treatment-emergent AE: Hypomagnesaemia: 1 (33.3) n (%)
  Treatment-emergent AE: Injection site erythema: 2 (66.7) n (%)
  Treatment-emergent AE: Injection site induration: 1 (33.3) n (%)
  Treatment-emergent AE: Injection site pain: 0 n (%)
  Treatment-emergent AE: Injection site pruritus: 3 (100) n (%)
  Treatment-emergent AE: Injection site reaction: 0 n (%)
  Treatment-emergent AE: Injection site swelling: 1 (33.3) n (%)
  Treatment-emergent AE: Malaise: 1 (33.3) n (%)
  Treatment-emergent AE: Myalgia: 1 (33.3) n (%)
  Treatment-emergent AE: Nausea: 1 (33.3) n (%)
  Treatment-emergent AE: Thrombocytopenia: 0 n (%)
  Treatment-emergent AE: Vomiting: 0 n (%)
human, in vivo, 0.06 mg/kg
  Treatment-emergent AE: Abdominal pain: 1 (33.3) n (%)
  Treatment-emergent AE: Anemia: 0 n (%)
  Treatment-emergent AE: Back pain: 0 n (%)
  Treatment-emergent AE: Blood bilirubin increased: 0 n (%)
  Treatment-emergent AE: Constipation: 1 (33.3%) n (%)
  Treatment-emergent AE: Cough: 0 n (%)
  Treatment-emergent AE: Decreased appetite: 0 n (%)
  Treatment-emergent AE: Dehydration: 0 n (%)
  Treatment-emergent AE: Diarrhea: 0 n (%)
  Treatment-emergent AE: Dizziness: 0 n (%)
  Treatment-emergent AE: Dry mouth: 0 n (%)
  Treatment-emergent AE: Dysgeusia: 0 n (%)
  Treatment-emergent AE: Dyspnea: 0 n (%)
  Treatment-emergent AE: Fatigue: 2 (66.7) n (%)
  Treatment-emergent AE: Headache: 0 n (%)
  Treatment-emergent AE: Hypomagnesaemia: 0 n (%)
  Treatment-emergent AE: Injection site erythema: 1 (33.3) n (%)
  Treatment-emergent AE: Injection site induration: 0 n (%)
  Treatment-emergent AE: Injection site pain: 1 (33.3) n (%)
  Treatment-emergent AE: Injection site pruritus: 1 (33.3) n (%)
  Treatment-emergent AE: Injection site reaction: 0 n (%)
  Treatment-emergent AE: Injection site swelling: 0 n (%)
  Treatment-emergent AE: Malaise: 1 (33.3) n (%)
  Treatment-emergent AE: Myalgia: 0 n (%)
  Treatment-emergent AE: Nausea: 0 n (%)
  Treatment-emergent AE: Thrombocytopenia: 0 n (%)
  Treatment-emergent AE: Vomiting: 0 n (%)
human, in vivo, 0.1 mg/kg
  Treatment-emergent AE: Abdominal pain: 1 (25.0) n (%)
  Treatment-emergent AE: Anemia: 2 (50.0) n (%)
  Treatment-emergent AE: Back pain: 2 (50.0) n (%)
  Treatment-emergent AE: Blood bilirubin increased: 1 (25.0) n (%)
  Treatment-emergent AE: Constipation: 3 (75.0) n (%)
  Treatment-emergent AE: Cough: 1 (25.0) n (%)
  Treatment-emergent AE: Decreased appetite: 4 (100) n (%)
  Treatment-emergent AE: Dehydration: 2 (50.0) n (%)
  Treatment-emergent AE: Diarrhea: 3 (75.0) n (%)
  Treatment-emergent AE: Dizziness: 2 (50.0) n (%)
  Treatment-emergent AE: Dry mouth: 1 (25.0) n (%)
  Treatment-emergent AE: Dysgeusia: 0 n (%)
  Treatment-emergent AE: Dyspnea: 1 (25.0) n (%)
  Treatment-emergent AE: Fatigue: 3 (75.0) n (%)
  Treatment-emergent AE: Headache: 1 (25.0) n (%)
  Treatment-emergent AE: Hypomagnesaemia: 0 n (%)
  Treatment-emergent AE: Injection site erythema: 2 (50.0) n (%)
  Treatment-emergent AE: Injection site induration: 3 (75.0) n (%)
  Treatment-emergent AE: Injection site pain: 1 (25.0) n (%)
  Treatment-emergent AE: Injection site pruritus: 0 n (%)
  Treatment-emergent AE: Injection site reaction: 0 n (%)
  Treatment-emergent AE: Injection site swelling: 1 (25.0) n (%)
  Treatment-emergent AE: Malaise: 1 (25.0) n (%)
  Treatment-emergent AE: Myalgia: 1 (25.0) n (%)
  Treatment-emergent AE: Nausea: 2 (50.0) n (%)
  Treatment-emergent AE: Thrombocytopenia: 0 n (%)
  Treatment-emergent AE: Vomiting: 4 (100) n (%)
human, in vivo, 0.2 mg/kg
  Treatment-emergent AE: Abdominal pain: 1 (25.0) n (%)
  Treatment-emergent AE: Anemia: 0 n (%)
  Treatment-emergent AE: Back pain: 1 (25.0) n (%)
  Treatment-emergent AE: Blood bilirubin increased: 1 (25.0) n (%)
  Treatment-emergent AE: Constipation: 1 (25.0) n (%)
  Treatment-emergent AE: Cough: 0 n (%)
  Treatment-emergent AE: Decreased appetite: 3 (75.0) n (%)
  Treatment-emergent AE: Dehydration: 0 n (%)
  Treatment-emergent AE: Diarrhea: 1 (25.0) n (%)
  Treatment-emergent AE: Dizziness: 1 (25.0) n (%)
  Treatment-emergent AE: Dry mouth: 1 (25.0) n (%)
  Treatment-emergent AE: Dysgeusia: 1 (25.0) n (%)
  Treatment-emergent AE: Dyspnea: 2 (50.0) n (%)
  Treatment-emergent AE: Fatigue: 2 (50.0) n (%)
  Treatment-emergent AE: Headache: 1 (25.0) n (%)
  Treatment-emergent AE: Hypomagnesaemia: 0 n (%)
  Treatment-emergent AE: Injection site erythema: 3 (75.0) n (%)
  Treatment-emergent AE: Injection site induration: 2 (50.0) n (%)
  Treatment-emergent AE: Injection site pain: 2 (50.0) n (%)
  Treatment-emergent AE: Injection site pruritus: 1 (25.0) n (%)
  Treatment-emergent AE: Injection site reaction: 0 n (%)
  Treatment-emergent AE: Injection site swelling: 2 (50.0) n (%)
  Treatment-emergent AE: Malaise: 1 (25.0) n (%)
  Treatment-emergent AE: Myalgia: 0 n (%)
  Treatment-emergent AE: Nausea: 2 (50.0) n (%)
  Treatment-emergent AE: Thrombocytopenia: 0 n (%)
  Treatment-emergent AE: Vomiting: 2 (50.0) n (%)
human, in vivo, 0.3 mg/kg
  Treatment-emergent AE: Abdominal pain: 1 (16.7) n (%)
  Treatment-emergent AE: Anemia: 2 (33.3) n (%)
  Treatment-emergent AE: Back pain: 0 n (%)
  Treatment-emergent AE: Blood bilirubin increased: 1 (16.7) n (%)
  Treatment-emergent AE: Constipation: 0 n (%)
  Treatment-emergent AE: Cough: 0 n (%)
  Treatment-emergent AE: Decreased appetite: 6 (100) n (%)
  Treatment-emergent AE: Dehydration: 2 (33.3) n (%)
  Treatment-emergent AE: Diarrhea: 2 (33.3) n (%)
  Treatment-emergent AE: Dizziness: 1 (16.7) n (%)
  Treatment-emergent AE: Dry mouth: 2 (33.3) n (%)
  Treatment-emergent AE: Dysgeusia: 1 (16.7) n (%)
  Treatment-emergent AE: Dyspnea: 0 n (%)
  Treatment-emergent AE: Fatigue: 2 (33.3) n (%)
  Treatment-emergent AE: Headache: 3 (50.0) n (%)
  Treatment-emergent AE: Hypomagnesaemia: 1 (16.7) n (%)
  Treatment-emergent AE: Injection site erythema: 3 (50.0) n (%)
  Treatment-emergent AE: Injection site induration: 2 (33.3) n (%)
  Treatment-emergent AE: Injection site pain: 2 (33.3) n (%)
  Treatment-emergent AE: Injection site pruritus: 2 (33.3) n (%)
  Treatment-emergent AE: Injection site reaction: 0 n (%)
  Treatment-emergent AE: Injection site swelling: 2 (33.3) n (%)
  Treatment-emergent AE: Malaise: 1 (16.7) n (%)
  Treatment-emergent AE: Myalgia: 3 (50.0) n (%)
  Treatment-emergent AE: Nausea: 3 (50.0) n (%)
  Treatment-emergent AE: Thrombocytopenia: 1 (16.7) n (%)
  Treatment-emergent AE: Vomiting: 2 (33.3) n (%)
human, in vivo, 0.65 mg/kg
  Treatment-emergent AE: Injection site swelling: 0 n (%)
human, in vivo, sc
  Recommended phase 2 dose: 0.65 mg/kg
In vivo
  DLTs due to thrombocytopenia: no DLTs due to thrombocytopenia
  Left ventricular ejection fraction after reduction: 45–50%
